Values of other authors, collected in US10934346B2, “Modified T cell comprising a polynucleotide encoding an inducible stimulating molecule comprising MyD88, CD40 and FKBP12” (priority 2014, dated 2021).

Tested on: CD40-dependent signaling cascades
Conditions: mouse, in vivo; cited from earlier work

CC[C@H](C(=O)N1CCCC[C@H]1C(=O)O[C@H](CCc1ccc(OC)c(OC)c1)c1cccc(OCC(=O)NCC(CNC(=O)COc2cccc([C@@H](CCc3ccc(OC)c(OC)c3)OC(=O)[C@@H]3CCCCN3C(=O)[C@@H](CC)c3cc(OC)c(OC)c(OC)c3)c2)CN(C)C)c1)c1cc(OC)c(OC)c(OC)c1 [AP20187]
induction of signaling in DCs: led to the in vivo induction of CD40-dependent signaling cascades in murine DCs
